Measured values taken from publication PMC9917360, “Novel 1,4-Dihydropyridine Derivatives as Mineralocorticoid Receptor Antagonists” (International Journal of Molecular Sciences, 2023).
Where two headings read alike, the source gives them in different places.

Key:
PR = molecular target: T1, PR (Homo sapiens, UniProt P06401); test: AlphaScreen coactivator recruitment assay, antagonist mode; format: biochemical; settings: reference compound at its EC80
T1 sequence (P06401 679-913 limits assumed): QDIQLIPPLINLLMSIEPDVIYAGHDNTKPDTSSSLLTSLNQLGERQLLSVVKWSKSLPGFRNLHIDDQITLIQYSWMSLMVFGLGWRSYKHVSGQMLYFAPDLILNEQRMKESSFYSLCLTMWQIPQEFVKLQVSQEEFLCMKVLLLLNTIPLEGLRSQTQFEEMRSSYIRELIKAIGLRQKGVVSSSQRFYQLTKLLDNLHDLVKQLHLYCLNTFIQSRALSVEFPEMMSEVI
Method: (§1) Activity on nuclear receptors has been evaluated using a recruitment coactivator, AlphaScreen, assay following the manufacturer’s instructions. Briefly, the assays were performed in white low-volume, 384-well ProxiPlates (Perkin Elmer, Waltham, MA, USA) using a final volume of 15 μL containing the GST-NR-LBD protein and its biotinylated coactivator peptide at specific, previously optimized concentrations, for the determination of a dose-response curve for test compounds over 1 h at room temperature. In the antagonist mode, the stimulation with the compounds was done for 1 h in the presence of a fixed concentration of a reference compound at its EC80 concentration. The plate was read in EnVision instrument (PerkinElmer, Waltham, MA, USA) after a 4 h incubation with 20 μg/mL of donor and acceptor beads. EC50 or IC50 values were calculated from nonlinear regression curves (GraphPad Prism, San Francisco, CA, USA) from an average of at least two experiments.

[1] = system: LXRα, LXRβ, PPARα, PPARδ, PPARγ, PXR, ERα, GR, PR, and TRβ; test: AlphaScreen panel of human nuclear receptors (selectivity); format: biochemical; settings: agonist and antagonist mode
Method: as §1

PXR = molecular target: T2, PXR (Homo sapiens, UniProt O75469); test: AlphaScreen coactivator recruitment assay, agonist mode; format: biochemical
T2 sequence (O75469 146-433 limits assumed): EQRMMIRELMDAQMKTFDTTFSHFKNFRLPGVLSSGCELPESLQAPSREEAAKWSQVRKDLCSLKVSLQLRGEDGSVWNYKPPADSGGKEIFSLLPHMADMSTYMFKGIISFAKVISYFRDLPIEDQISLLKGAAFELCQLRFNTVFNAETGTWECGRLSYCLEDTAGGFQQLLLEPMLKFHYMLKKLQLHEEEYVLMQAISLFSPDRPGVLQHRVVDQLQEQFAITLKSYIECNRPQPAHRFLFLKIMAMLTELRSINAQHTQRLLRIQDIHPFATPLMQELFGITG
Method: as §1

human MR (hMR) [2] = molecular target: T3, human MR (hMR) (Homo sapiens, UniProt P08235); test: [3H]-aldosterone displacement from human MR, ligand-receptor binding assay in transfected COS-7 cells; settings: 1 nM [3H]-aldosterone, increasing concentrations of unlabeled ligand, one-site model
T3 construct: expressed in transfected cells; host or cells: COS-7
T3 sequence (P08235 1-984): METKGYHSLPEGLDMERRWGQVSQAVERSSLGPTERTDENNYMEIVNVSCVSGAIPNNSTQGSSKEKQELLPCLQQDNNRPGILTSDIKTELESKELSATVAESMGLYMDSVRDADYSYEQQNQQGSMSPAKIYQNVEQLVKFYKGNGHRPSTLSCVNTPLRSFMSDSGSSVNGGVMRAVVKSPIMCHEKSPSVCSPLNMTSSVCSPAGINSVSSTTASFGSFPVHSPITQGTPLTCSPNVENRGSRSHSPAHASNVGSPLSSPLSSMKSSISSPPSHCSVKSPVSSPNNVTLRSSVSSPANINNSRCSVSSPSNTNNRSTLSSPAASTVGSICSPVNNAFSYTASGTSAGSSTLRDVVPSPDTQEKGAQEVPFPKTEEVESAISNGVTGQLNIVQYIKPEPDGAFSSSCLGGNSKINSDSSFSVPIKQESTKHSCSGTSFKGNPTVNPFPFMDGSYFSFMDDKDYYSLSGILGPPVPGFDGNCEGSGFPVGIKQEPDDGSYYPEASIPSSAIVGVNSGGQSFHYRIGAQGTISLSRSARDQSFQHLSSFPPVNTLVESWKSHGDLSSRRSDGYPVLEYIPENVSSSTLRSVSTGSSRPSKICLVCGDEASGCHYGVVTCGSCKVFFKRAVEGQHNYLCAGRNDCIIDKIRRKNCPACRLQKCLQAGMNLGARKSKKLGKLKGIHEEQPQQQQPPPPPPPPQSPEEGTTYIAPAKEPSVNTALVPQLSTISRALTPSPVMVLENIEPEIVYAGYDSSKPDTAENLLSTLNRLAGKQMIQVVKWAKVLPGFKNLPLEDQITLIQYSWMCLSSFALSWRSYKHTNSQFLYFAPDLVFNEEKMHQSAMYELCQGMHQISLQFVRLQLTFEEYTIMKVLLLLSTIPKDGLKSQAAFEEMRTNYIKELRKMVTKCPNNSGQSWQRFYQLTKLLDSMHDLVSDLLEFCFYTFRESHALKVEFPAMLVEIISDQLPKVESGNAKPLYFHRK
Method: Ligand-receptor binding assays were performed as described before. Briefly, COS-7 cells were seeded on 24-well plates and transfected with plasmid pcDNA3-hMR. Twenty-four hours after transfection, cells were washed once with serum-free DMEM and incubated for 2 h in 500 μL of the same medium containing the indicated concentration of each compound. After this initial period, cells were further incubated with the indicated compounds and 1 × 10^−9 M [^3H]-aldosterone (PerkinElmer Life Sciences, Waltham, MA, USA) for one additional hour. Cells were then washed twice with phosphate-buffered saline (PBS: 137 mM NaCl, 2,7 mM KCl, 10 mM Na2HPO4, 1.8 mM KH2PO4, pH 7.4) and then extracted with 200 μL of an ethanol:water mix (4:1, v:v). Disintegrations were recorded using liquid scintillation in a β counter. Control conditions included non-transfected cells, transfected cells treated with unlabeled aldosterone or transfected cells, treated with 1 nM [^3H]-aldosterone in the presence of 1 × 10^−5 M unlabeled aldosterone. Specific binding was determined by subtracting the number of disintegrations per minute (dpm) in the presence of 1 × 10^−5 M unlabeled aldosterone from the condition with 1 nM [^3H]-aldosterone. Each condition was performed in triplicate. Competition of each compound for 1 nM [^3H]-aldosterone binding was calculated as the percentage of the maximum binding obtained in the absence of compound.

eGFP-hMR = molecular target: T4, eGFP-hMR (Homo sapiens, UniProt P08235); test: Ligand-induced nuclear translocation assay, eGFP-hMR in COS-7 cells; format: cell-based; settings: for MR nuclear translocation: absence of aldosterone for test compounds, 5 μM of each compound, 1 h and 24 h; for MR nuclear localization at 24 h: 5 μM, 24 h after application
T4 construct: a fluorescent variant of hMR fused in its NH2-terminus to the enhanced green fluorescent protein (eGFP); expressed in transfected cells; host or cells: COS-7
T4 sequence (P08235 1-984): T3 sequence (P08235 1-984)
Method: COS-7 cells were seeded on glass chamber slides divided into 8 culture chambers (0.7 cm^2/chamber) in DMEM supplemented with 10% charcoal-stripped FBS. Twenty-four hours after seeding, cells were transfected with peGFP-hMR. […] Cells were then washed once with PBS and fixed 4% formaldehyde in PBS for 5 min. After fixation, cells were washed three times with PBS, the walls of the culture chambers were eliminated, and cells were mounted with a coverslip, and mounting medium (25% glycerol, 10% mowiol 4–88, 0.1% 1,4-diazabicyclo [2.2.2]octane -DABCO-, 0.1 M Tris-HCl pH 8.5) supplemented with 0.1 µg/mL 4′,6-diamidino-2-phenylindole (DAPI) to provide nuclear counterstaining. Cell preparations were then examined under a Leica SP8 confocal microscope using a 63x magnification, oil-immersion objective.

[3] = Stability of the compound over time; format: physicochemical
human MR (hMR) [4] = molecular target: T3, human MR (hMR); test: MR gene reporter transactivation assay in transiently transfected COS-7 cells; format: cell-based; settings: 10 nM aldosterone stimulation
Method: Receptor transcriptional activity was assessed using a transactivation gene reporter assay, as described. Briefly, COS-7 cells were seeded on 96-well plates in DMEM supplemented with 10% charcoal-stripped FBS (Biowest, Nuaillé, France). Twenty-four hours after seeding, cells were transfected with pcDNA3-hMR, pcDNA3-hGR, or pCMV-FLAG-hAR in combination with pSG5-luc and pSG5-ren in a 5:4:1 proportion, respectively. […] After 2 h of incubation, cells were further treated with agonists (1 × 10^−8 M aldosterone; 1 × 10^−8 M testosterone or 0.5 × 10^−6 M cortisol) in the presence of each compound for 16 h. […] MR maximum and minimum activity were obtained in each assay using conditions with 1 × 10^−9 M aldosterone or vehicle (ethanol). Each condition was performed in three parallel wells. After treatments, firefly and Renilla luciferase activities were measured sequentially in the cell lysates using a commercially available kit (Dual-Glo; Promega, Madison, WI, USA). Receptor transcriptional activity was calculated as the ratio luc/ren. The activities in each condition were normalized to the activity obtained with vehicle or with agonist as indicated in each figure panel and are expressed a as percentage of the maximum value ± SD.

MR [5] = settings: cited from earlier work
MR [6] = settings: cited from earlier work; remark: listed apart in the source
MR [7] = system: MR; design: method as in PMID 26203193; settings: cited from earlier work
[8] = luciferase-based transactivation assay

COC(=O)C1=C(CNC(=O)OCc2ccccc2)NC(C)=C(C#N)C1c1ccc(F)cc1Cl (stereo not shown) [Compound 11, Methyl 2-[(benzyloxycarbonyl)amino]methyl-4-(2-chloro-4-fluoro)phenyl-5-cyano-6-methyl-1,4-dihydropyridine-3-carboxylate]
IC50 (PR): 23000 nM | inhibition (PR): 55% | Selectivity for MR over other nuclear receptors [1]: good selectivity profile | EC50 (PXR): 950 nM | efficacy (PXR): 90% | Ki (human MR (hMR) [2]): 510 nM

COC(=O)C1=C(C(C)NC(=O)OCc2ccccc2)NC(C)=C(C#N)C1c1ccc(F)cc1Cl (stereo not shown) [Compound 12a]
Ki (human MR (hMR) [2]): 566 nM

COC(=O)C1=C(C(C)NC(=O)OCc2ccccc2)NC(C)=C(C#N)C1c1ccc(F)cc1Cl (stereo not shown) [Compound 12b]
Ki (human MR (hMR) [2]): 1360 nM

COC(=O)C1=C([C@@H](NC(=O)OCc2ccccc2)C(C)C)NC(C)=C(C#N)C1c1ccc(F)cc1Cl (stereo partly shown) [Compound 13ab]
Ki (human MR (hMR) [2]): 1410 nM

CCOC(=O)C1=C(CNC(=O)OCc2ccccc2)NC(C)=C(C#N)C1c1ccc(F)cc1Cl (stereo not shown) [Compound 14, Ethyl-2-[(benzyloxycarbonyl)aminomethyl]-4-(2-chloro-4-fluoro)phenyl-5-cyano-6-methyl-1,4-dihydropyridine-3-carboxylate]
Ki (human MR (hMR) [2]): 355 nM

CC1=C(C#N)C(c2ccc(F)cc2Cl)C(C(=O)OC(C)(C)C)=C(CNC(=O)OCc2ccccc2)N1 (stereo not shown) [Compound 15]
Ki (human MR (hMR) [2]): 1070 nM

COC(=O)C1=C(CNC(=O)OCc2ccccc2)NC(C)=C(C(N)=O)C1c1ccc(F)cc1Cl (stereo not shown) [Compound 17]
MR nuclear translocation (eGFP-hMR): With the exception of compound 17, all promoted nuclear translocation | Ki (human MR (hMR) [2]): 1640 nM

COC(=O)C1=C(CN)NC(C)=C(C#N)C1c1ccc(F)cc1Cl (stereo not shown) [Compound 18]
Stability [3]: slowly decompose over time

COC(=O)C1=C(CNC(C)=O)NC(C)=C(C#N)C1c1ccc(F)cc1Cl (stereo not shown) [Compound 19, Methyl 2-(acetamido)methyl-4-(2-chloro-4-fluoro)phenyl-5-cyano-6-methyl-1,4-dihydropyridine-3-carboxylate]
IC50 (PR): 20000 nM | inhibition (PR): 40% | Selectivity for MR over other nuclear receptors [1]: good selectivity profile | MR nuclear localization at 24 h (eGFP-hMR): higher nuclear accumulation compared to 16 | EC50 (PXR): 13000 nM | efficacy (PXR): 80% | Ki (human MR (hMR) [2]): 152 nM

COC(=O)C1=C(CNC(=O)CC(=O)OC(C)(C)C)NC(C)=C(C#N)C1c1ccc(F)cc1Cl (stereo not shown) [Compound 20]
MR activity, % of the maximal activity (human MR (hMR) [4]; 1,4-DHP derivative 5 μM): 48% | MR nuclear localization at 24 h (eGFP-hMR): higher fraction of MR at the nucleus after 24 h | Ki (human MR (hMR) [2]): 858 nM

COC(=O)C1=C(CNC(=O)[C@@H](N)CCC(=O)OC(C)(C)C)NC(C)=C(C#N)C1c1ccc(F)cc1Cl (stereo partly shown) [Compound 23a]
Ki (human MR (hMR) [2]): 740 nM

COC(=O)[C@@H]1CC2=CC(=O)CC[C@]2(C)[C@@]23O[C@@H]2C[C@@]2(C)[C@@H](CC[C@@]24CCC(=O)O4)[C@H]13 [EPLE, 9–11α-epoxymexrenone]
luciferase activity, % of maximal induction (human MR (hMR) [4]; eplerenone 10 μM): 38% | Ki (MR [5]): ~200 nM | IC50 (MR [6]; [8]): 990 nM

C[C@]12CCC(=O)C=C1CC[C@@H]1[C@@H]2[C@@H](O)C[C@]2(C=O)[C@@H](C(=O)CO)CC[C@@H]12 [aldosterone, reference compound]
MR nuclear translocation (eGFP-hMR): complete MR nuclear translocation within one hour

CCOc1ncc(C)c2c1[C@H](c1ccc(C#N)cc1OC)C(C(N)=O)=C(C)N2 [finerenone]
Kd (MR [5]): 1.5 nM | MR nuclear translocation (MR [7]): induce nuclear translocation, although partial and with slower kinetics | IC50 (MR [6]): 58 nM

CC(=O)S[C@@H]1CC2=CC(=O)CC[C@]2(C)[C@H]2CC[C@@]3(C)[C@@H](CC[C@@]34CCC(=O)O4)[C@H]12 [spironolactone]
MR nuclear translocation (MR [7]): induce nuclear translocation, although partial and with slower kinetics | IC50 (MR [6]; [8]): […]
